# Read-outs that look alike come from different tables or passages of the source.
# B1: CD33-8: fully human anti-CD33 scFv CAR with 4-1BB and CD3zeta; full CAR SEQ ID NO: 55, scFv SEQ ID NO: 46 (protein)
# chain: MALPVTALLLPLALLLHAARPQVQLVQSGAEVKKPGASVRVSCKASGYMFTDFFIHWVRQAPGQGLEWMGWINPNSGVTKYAQKFQGRVTMTRNTSISTAYMELSSLRSEDTAVYYCATWYSSGWYGIANIWGQGTMVTVSSASGGGGSGGGGSGGGGSDIQLTQSPSSLSASVGDRVTITCQASHDISNYLHWYQQKPGKAPKLLIYDASNLETGVPSRFTGSGSGTDFTLTIRSLQPEDVAAYYCQQSDDLPHTFGQGTKVDIKTTTPAPRPPTPAPTIASQPLSLRPEACRPAAGGAVHTRGLDFACDIYIWAPLAGTCGVLLLSLVITLYCKRGRKKLLYIFKQPFMRPVQTTQEEDGCSCRFPEEEEGGCELRVKFSRSADAPAYKQGQNQLYNELNLGRREEYDVLDKRRGRDPEMGGKPRRKNPQEGLYNELQKDKMAEAYSEIGMKGERRRGKGHDGLYQGLSTATKDTYDALHMQALPPR
# B2: CD33-UPenn: an scFv based on the sequence of Mylotarg, a monoclonal antibody that binds to the human CD33 antigen (protein)
# chain: EIVLTQSPGSLAVSPGERVTMSCKSSQSVFFSSSQKNYLAWYQQIPGQSPRLLIYWASTRESGVPDRFTGSGSGTDFTLTISSVQPEDLAIYYCHQYLSSRTFGQGTKLEIKRGGGGSGGGGSSGGGSQVQLQQPGAEVVKPGASVKMSCKASGYTFTSYYIHWIKQTPGQGLEWVGVIYPGNDDISYNQKFQGKATLTADKSSTTAYMQLSSLTSEDSAVYYCAREVRLRYFDVWGQGTTVTVSS
# modifications: left off: small tags and cut ends
# Columns and labels:
# [1] = tested on: CAR-expressing, transduced T cells; assay: CART proliferation in co-culture with Nalm-6 cells in presence of RAD001; format: cell-based; conditions: CARTs co-cultured with Nalm-6 cells, different concentrations of RAD001, 4 days
# Method: CARTs were co-cultured with Nalm-6 cells in the presence of different concentrations of RAD001. The number of CAR-positive CD3-positive T cells (black) and total T cells (gray) was assessed after 4 days of co-culture.
# [2] = tested on: humanized CD19 CART cells; assay: In vivo proliferation of humanized CD19 CART cells with and without RAD001; conditions: 0.003 mg/kg daily with huCTL019; CD4+ and CD8+ CAR T cells
# Method: FIGS. 57A and 57B show in vivo proliferation of humanized CD19 CART cells with and without RAD001 dosing. […] Circles denote PBS; squares denote huCTL019; triangles denote huCTL019 with 3 mg/kg RAD001; inverted triangles denote huCTL019 with 0.3 mg/kg RAD001; diamonds denote huCTL019 with 0.03 mg/kg RAD001; and circles denote huCTL019 with 0.003 mg/kg RAD001.
# [3] = tested on: huCART19 cells co-cultured with Nalm-6; assay: Effect of RAD001 on CART proliferation, 4 day co-culture; format: cell-based, human
# Method: To evaluate the functionality of CARTs, the T cells are thawed and counted, and viability is assessed by Cellometer. The number of CAR-positive cells in each culture is normalized using non-transduced T cells (UTD). The impact of RAD001 on CARTs was tested in titrations with RAD001, starting at 50 nM. The target cell line used in all co-culture experiments is Nalm-6, a human pre-B cell acute lymphoblastic leukemia (ALL) cell line expressing CD19 and transduced to express luciferase.
# For measuring the proliferation of CARTs, T cells are cultured with target cells at a ratio of 1:1. The assay is run for 4 days, when cells are stained for CD3, CD4, CD8 and CAR expression. The number of T cells is assessed by flow cytometry using counting beads as reference.
# NALM6-luc tumors = assay: RAD001 alone on NALM6-luc tumor growth; format: in vivo, NSG mice; conditions: daily oral dosing of RAD001 alone; FIG. 55
# Method: NALM6-luc cells: The NALM6 human acute lymphoblastic leukemia (ALL) cell line was developed from the peripheral blood of a patient with relapsed ALL. The cells were then tagged with firefly luciferase. These suspension cells grow in RPMI supplemented with 10% heat inactivated fetal bovine serum.
# Mice: 6 week old NSG (NOD.Cg-Prkdc^scidIl2rg^tmIWjl/SzJ) mice were received from the Jackson Laboratory (stock number 005557).
# Tumor implantation: NALM6-luc cells were grown and expanded in vitro in RPMI supplemented with 10% heat inactivated fetal bovine serum. The cells were then transferred to a 15 ml conical tube and washed twice with cold sterile PBS. NALM6-luc cells were then counted and resuspended at a concentration of 10×10^6 cells per milliliter of PBS. The cells were placed on ice and immediately (within one hour) implanted in the mice. NALM6-luc cells were injected intravenously via the tail vein in a 100 μl volume, for a total of 1×10^6 cells per mouse.
# (§1) RAD001 dosing: A concentrated micro-emulsion of 50 mg equal to 1 mg RAD001 was formulated and then resuspended in D5W (dextrose 5% in water) at the time of dosing. Mice were orally dosed daily (via oral gavage) with 200 μl of the desired doses of RAD001.
# [4] = RAD001 PK analysis in tumor bearing mice; format: in vivo, NSG mice; conditions: for concentration at 24 h: NSG, mouse, whole blood
# Method: as §1
# PK analysis: Mice were dosed daily with RAD001 starting 7 days post tumor implantation. Dosing groups were as follows: 0.3 mg/kg, 1 mg/kg, 3 mg/kg, and 10 mg/kg. Mice were bled on days 0 and 14 following the first and last dose of RAD001, at the following time points for PK analysis: 15 minutes, 30 minutes, 1 hour, 2 hours, 4 hours, 8 hours, 12 hours, and 24 hours.
# huCAR19 CAR T cells = assay: CAR T cell expansion in vivo with RAD001 (FACS); design: species or system NSG mice; conditions: lowest doses of RAD001, daily oral; FIG. 57
# Method: CAR T cell dosing: Mice were administered 5×10^6 CAR T cells 7 days after tumor implantation. Cells were partially thawed in a 37 degree Celsius water bath and then completely thawed by the addition of 1 ml of cold sterile PBS to the tube containing the cells. The thawed cells were transferred to a 15 ml falcon tube and adjusted to a final volume of 10 mls with PBS. The cells were washed twice at 1000 rpm for 10 minutes each time and then counted on a hemocytometer. T cells were then resuspended at a concentration of 50×10^6 CAR T cells per ml of cold PBS and kept on ice until the mice were dosed. The mice were injected intravenously via the tail vein with 100 μl of the CAR T cells for a dose of 5×10^6 CAR T cells per mouse. Eight mice per group were treated either with 100 μl of PBS alone (PBS), or humanized CD19 CAR T cells.
# as §1
# Based on these doses, huCAR19 CAR T cells were dosed with and without RAD001 to determine the proliferative ability of these cells. The highest dose used was 3 mg/kg based on the levels of RAD001 in the blood 24 hours after dosing. […] Mice were monitored via FACS for T cell expansion.
# hsCD33 = hsCD33 (Homo sapiens, UniProt P20138); assay: Cell surface scFv on JNL cells detected with recombinant Fc-tagged hsCD33; format: binding; conditions: recombinant Fc-tagged hsCD33, PE secondary antibody; relative to GFP or CD19 scFv JNL cells
# Method: (§2) FIG. 27 is an image depicting the cell surface expression of scFvs on a Jurkat T cell line, which contains a luciferase reporter driven by an NFAT-regulated promoter (termed JNL cells). JNL cells were transduced with a lentiviral vector expressing a cDNA encoding GFP, a scFv that binds to CD19, or cDNAs that encode an scFv, which was raised against hsCD33. The cell surface expression of individual scFv's on JNLs was detected by incubating cells with recombinant Fc-tagged hsCD33 followed by incubation with an Fc-specific secondary antibody conjugated to phycoerythrin.
# as §2, with “To depict the” for “FIG. 27 is an image depicting the”, “of scFv's” for “of scFvs”, “JNL cells),” for “JNL cells).”, “GFP, an” for “GFP, a”, “against hsCD33 (FIG. 27).” for “against hsCD33.”
# protein L = assay: Protein L binding of scFv on JNL cells; conditions: data not shown
# MOLM13 = assay: NFAT-dependent luciferase reporter activation of JNL cells; format: cell-based; conditions: JNL cells co-cultured with MOLM13 relative to MOLP8 or GFP JNL cells; 24 hours
# Description: FIGS. 28A, 28B, 28C, and 28D are images showing the ability of individual scFv's targeting hsCD33 to elicit NFAT activity in JNL cells. JNL cells expressing scFv's against hsCD33 were co-cultured with MOLM13 or MOLP8 cell lines, which express hsCD33 or lack hsCD33 cell surface expression, respectively (FIG. 28A; hsCD33, solid green line; isotype control, gray dashed line and shaded area). FIG. 28B depicts the activation of JNL cells expressing an scFv targeting hsCD33 in the presence of MOLM13 (solid lines) or MOLP8 (dashed lines) cells. JNL cells expressing individual scFv's were plated at different effector (i.e. JNL cells) to target (i.e. MOLM13 or MOLP8) ratios and analyzed for the expression of relative luciferase units (RLUs) using the Bright-Glo™ Luciferase Assay on the EnVision instrument 24 hours post-incubation. FIG. 28C is a version of FIG. 28B, depicting the activation of JNL cells in the presence of MOLM13. […]
# Individual scFv's targeting hsCD33 were evaluated for their ability to elicit NFAT activity in JNL cells (FIG. 28). […] JNL cells expressing individual scFv's were plated at different effector (i.e. JNL cells) to target (i.e. MOLM13 or MOLP8) ratios and analyzed for the expression of relative luciferase units (RLUs) using the Bright-Glo™ Luciferase Assay on the EnVision instrument 24 hours post-incubation.
# [5] = target: recombinant Fc-tagged hsCD33 (Homo sapiens, UniProt P20138); assay: scFv binding to recombinant CD33 by flow cytometry (JNL cells); conditions: scFv on JNL cells, Fc-tagged hsCD33, PE secondary; FIG. 32
# Method: Finally, scFv cross-reactivity to cynomolgus CD33 (cyCD33) was assessed by flow cytometry as depicted in FIG. 32. JNL cells transduced with a lentiviral vector expressing scFv's raised against hsCD33 were incubated with either recombinant Fc-tagged hsCD33 (red line) or cyCD33 (blue line) followed by incubation with an Fc-specific secondary antibody conjugated to phycoerythrin.
# Chain of hsCD33 (P20138 18-259 limits assumed): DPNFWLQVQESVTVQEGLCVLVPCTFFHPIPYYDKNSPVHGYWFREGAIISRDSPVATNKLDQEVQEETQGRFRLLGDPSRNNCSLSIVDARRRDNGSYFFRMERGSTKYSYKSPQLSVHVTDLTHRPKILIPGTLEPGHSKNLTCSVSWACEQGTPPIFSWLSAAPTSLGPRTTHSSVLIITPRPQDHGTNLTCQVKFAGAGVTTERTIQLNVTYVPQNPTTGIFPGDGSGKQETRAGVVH
# Chain of recombinant Fc-tagged hsCD33 (P20138 18-259 limits assumed): as above
molecule,measurement,setting,value
"CO[C@H]1C[C@@H]2CC[C@@H](C)[C@@](O)(O2)C(=O)C(=O)N2CCCC[C@H]2C(=O)O[C@H]([C@H](C)C[C@@H]2CC[C@@H](OCCO)[C@H](OC)C2)CC(=O)[C@H](C)/C=C(\C)[C@@H](O)[C@@H](OC)C(=O)[C@H](C)C[C@H](C)/C=C/C=C/C=C/1C [RAD001, (1R,9S,12S,15R,16E,18R,19R,21R,23 S,24E,26E,28E,30S,32S,35R)-1,18-dihydroxy-12-{(1R)-2-[(1 S,3R,4R)-4-(2-hydroxyethoxy)-3-methoxycyclohexyl]-1-methylethyl}-19,30-dimethoxy-15,17,21,23,29,35-hexamethyl-11,36-dioxa-4-aza-tricyclo[30.3.1.04,9]hexatriaconta-16,24,26,28-tetraene-2,3,10,14,20-pentaone]","Proliferation of CAR-expressing, transduced T cells",[1],enhanced by low doses of RAD001
same,CAR T cell proliferation in vivo,[2],"enhancement in CAR T cell proliferation, above the normal level of huCAR19 proliferation"
same,Proliferation of huCART19 cells,"[3]; 0.0032 and 0.016 nM RAD001, 4 day co-culture with Nalm-6, FIG. 54",proliferation was higher than observed without the addition of RAD001
same,RAD001 concentration at which huCART19 cells expanded,[3]; 4 day co-culture with Nalm-6,less than 0.016 nM
same,Growth of NALM6-luc tumors,NALM6-luc tumors,did not have an impact on the growth of NALM6-luc tumors
same,concentration at 24 h,"[4]; oral, 0.3 mg/kg, 24 hours after the final dose of RAD001, read-out: Concentration of RAD001",> 10 nM
same,concentration at 24 h,"[4]; 24 hours after dosing, 0.3 mg/kg oral, day 0 and day 14, read-out: RAD001 concentrations in the blood",> 10 nM
same,Stability in the blood,"[4]; tumor bearing mice, FIGS. 56A, 56B",fairly stable in the blood
same,Proliferation of the CAR T cells in vivo,huCAR19 CAR T cells,enhanced proliferation of the CAR T cells
B1,Binding to hsCD33 (cell surface scFv on JNL cells),hsCD33,lacked appreciable binding to either hsCD33 or protein L
same,Binding to protein L,protein L,lacked appreciable binding to either hsCD33 or protein L
B2,NFAT-dependent luciferase activity (RLUs),MOLM13,capable of triggering NFAT-dependent luciferase activity
same,Binding of hsCD33,[5],capable of binding hsCD33
